IC50 and Dmax data for 24 molecules are collected here from patent US20250188069A1, “COMPOUNDS AND METHODS FOR DEGRADING CASEIN KINASE 1 ALPHA” (PIN THERAPEUTICS, INC., priority 2022, published 2025).

Structures can show the parent of a compound that is named as a salt. Where two headings read alike, the source gives them in different places.

One assay concerns MV-4-11 cells. In words: AML cell viability assay (RealTime-Glo). The following applies: Homo sapiens, read-out: Cell viability classification. Format: cell-based.
A further assay addresses CK1α (Homo sapiens, UniProt P48729+Q96SW2). Put plainly: CK1α degradation, flow cytometry in MV4-11 cells. The assay is classed as cell-based. The following applies: % reduction of CK1α compared to DMSO, MV4-11 cells at 316 nM for 16 hours, read-out: CK1α degradation classification. Further details: CK1α levels were determined in MV-4-11 cells using Jess (Protein Simple); host or cells: MV-4-11. On the procedure: MV-4-11 cells were obtained from ATCC and grown in IMDM supplemented with 10% FBS. The cells were maintained at 37° C. under 5% CO2.
Compounds of the present disclosure were added to cells (final DMSO concentration of 0.5%) and incubated for 16 hours. CK1α level was determined in MV4-11 cells using flow cytometry (Luminex, Guava EasyCyte Plus). Briefly, cells were prepared with sequential 10% formalin and 70% methanol fixation. […] GuavaSoft Incyte software was used to analyse the flow cytometry data. Protein levels relative to DMSO are calculated for CK1α.
The efficacy of CK1α degradation of other part of compounds of the present disclosure was determined by treating MV4-11 cells at […] (Final DMSO concentration of 0.5%) for 16 hours. Protein levels relative to DMSO are calculated for CK1α.
Protein levels relative to DMSO are calculated for CK1α.
In general terms: In flow cytometry, cells or beads pass a laser one at a time.

Setting [1] is: MV4-11, IC50 class, MV-4-11 cells, RealTime-Glo after 44 hrs of treatment (TABLE 3).
Where [2] appears, read: MV4-11, IC50 class, MV-4-11 cells, RealTime-Glo after 44 hrs of treatment (TABLE 1).
The mark [3] stands for this setting: MV4-11, IC50 class, MV-4-11 cells, RealTime-Glo after 44 hrs of treatment (TABLE 4).
[4] abbreviates: MV4-11, IC50 class, MV-4-11 cells, RealTime-Glo after 44 hrs of treatment (TABLE 5).
Setting [5] is: MV4-11, IC50 class, MV-4-11 cells, RealTime-Glo after 44 hrs of treatment (TABLE 2).

Sequence of CK1α (P48729 whole entry): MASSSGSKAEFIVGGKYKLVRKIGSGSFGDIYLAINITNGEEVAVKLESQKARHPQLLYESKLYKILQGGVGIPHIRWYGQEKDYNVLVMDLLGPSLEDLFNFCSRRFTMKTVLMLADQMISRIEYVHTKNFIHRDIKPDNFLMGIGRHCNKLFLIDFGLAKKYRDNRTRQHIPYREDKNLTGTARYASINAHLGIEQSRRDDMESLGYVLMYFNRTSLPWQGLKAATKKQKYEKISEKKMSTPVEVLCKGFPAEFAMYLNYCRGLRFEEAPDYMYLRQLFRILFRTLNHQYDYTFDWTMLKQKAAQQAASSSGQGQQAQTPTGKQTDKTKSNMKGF
Sequence of CK1α (Q96SW2 whole entry): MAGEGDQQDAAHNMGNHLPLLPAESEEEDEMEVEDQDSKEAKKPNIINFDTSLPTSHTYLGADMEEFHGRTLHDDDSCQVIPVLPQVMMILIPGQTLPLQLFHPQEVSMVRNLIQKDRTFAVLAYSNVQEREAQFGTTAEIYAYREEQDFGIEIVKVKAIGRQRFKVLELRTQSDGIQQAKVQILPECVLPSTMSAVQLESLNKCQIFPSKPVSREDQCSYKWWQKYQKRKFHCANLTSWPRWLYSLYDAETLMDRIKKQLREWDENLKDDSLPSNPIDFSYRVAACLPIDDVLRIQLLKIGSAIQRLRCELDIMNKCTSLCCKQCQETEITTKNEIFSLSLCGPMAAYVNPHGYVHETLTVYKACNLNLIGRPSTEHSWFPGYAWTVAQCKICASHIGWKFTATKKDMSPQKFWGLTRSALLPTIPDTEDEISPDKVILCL
Sequence of CK1α (Q16531 whole entry partner): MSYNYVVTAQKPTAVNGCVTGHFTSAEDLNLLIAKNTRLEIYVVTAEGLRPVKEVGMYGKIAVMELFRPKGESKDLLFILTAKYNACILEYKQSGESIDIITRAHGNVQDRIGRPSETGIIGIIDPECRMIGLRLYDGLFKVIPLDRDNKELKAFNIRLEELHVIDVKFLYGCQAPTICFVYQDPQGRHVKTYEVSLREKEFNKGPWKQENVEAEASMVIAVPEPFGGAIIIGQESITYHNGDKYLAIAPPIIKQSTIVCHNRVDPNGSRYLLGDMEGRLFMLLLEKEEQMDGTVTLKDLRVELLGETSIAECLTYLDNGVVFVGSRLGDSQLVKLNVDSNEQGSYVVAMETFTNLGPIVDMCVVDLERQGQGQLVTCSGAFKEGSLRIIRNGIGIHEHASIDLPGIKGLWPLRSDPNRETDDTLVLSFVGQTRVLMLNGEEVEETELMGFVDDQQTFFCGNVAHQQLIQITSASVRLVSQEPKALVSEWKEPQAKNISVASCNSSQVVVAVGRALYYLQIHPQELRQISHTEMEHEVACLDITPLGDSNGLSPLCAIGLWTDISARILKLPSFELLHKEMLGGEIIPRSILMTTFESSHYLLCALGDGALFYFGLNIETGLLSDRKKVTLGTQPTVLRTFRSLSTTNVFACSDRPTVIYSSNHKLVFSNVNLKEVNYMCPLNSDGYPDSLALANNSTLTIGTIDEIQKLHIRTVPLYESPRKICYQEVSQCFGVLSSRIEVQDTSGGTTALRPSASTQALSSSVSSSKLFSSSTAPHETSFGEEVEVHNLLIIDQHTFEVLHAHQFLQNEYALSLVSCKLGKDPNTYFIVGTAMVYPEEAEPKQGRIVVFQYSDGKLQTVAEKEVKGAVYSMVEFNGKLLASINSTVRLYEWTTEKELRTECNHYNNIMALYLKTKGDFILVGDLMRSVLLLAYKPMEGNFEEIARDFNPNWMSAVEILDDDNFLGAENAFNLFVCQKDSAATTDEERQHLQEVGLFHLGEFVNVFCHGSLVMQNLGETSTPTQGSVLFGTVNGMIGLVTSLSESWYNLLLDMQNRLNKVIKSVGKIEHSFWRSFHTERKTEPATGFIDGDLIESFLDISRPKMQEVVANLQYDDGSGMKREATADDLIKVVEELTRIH

Turning to `N[C@H]1CC[C@H](N(CCC2CCNCC2)c2cccc3c2CN(C2CCC(=O)NC2=O)C3=O)CC1` (stereo partly shown) [Compound 239, 3-(4-(((1r,4r)-4-aminocyclohexyl) (2-(piperidin-4-yl)ethyl)amino)-1-oxoisoindolin-2-yl) piperidine-2,6-dione, 2HCl], in the assay with MV-4-11 cells (setting [1]), the IC50 was more than 1000 nM. Further, the Dmax at 0.316 µM on CK1α was less than 50%.
Take `O=C1CCC(N2Cc3c(cccc3N(CCC3CC3)[C@H]3CC[C@H](NC4CC(F)(F)C4)CC3)C2=O)C(=O)N1` (stereo partly shown) [Compound 515, 3-(4-((2-cyclopropylethyl)((1r,4r)-4-((3,3-difluorocyclobutyl)amino)cyclohexyl)amino)-1-oxoisoindolin-2-yl)piperidine-2,6-dione formate]: in the assay on MV-4-11 cells (setting [1]), the IC50 was more than 1000 nM. Besides, the Dmax at 0.316 µM at CK1α was 50 to 75%.
With `NCC(CCN(CCC1CC1)c1cccc2c1CN(C1CCC(=O)NC1=O)C2=O)C(F)(F)F` (stereo not shown) [Compound 519, 3-(4-{[4-amino-3-(trifluoromethyl)butyl](2-cyclopropylethyl)amino}-1-oxo-3H-isoindol-2-yl)piperidine-2,6-dione], in the assay on MV-4-11 cells (MV4-11, 44 h), the IC50 was 100 to 1000 nM. Further, on CK1α, the Dmax at 0.316 µM was in the range of 50 to 75%.
Turning to `N[C@@H]1CC[C@@H](N(CCC2CC2)c2cccc3c2CN(C2CCC(=O)NC2=O)C3=O)C[C@H]1F` (stereo partly drawn) [Compound 521, 3-(4-(((1R,3R,4R)-4-amino-3-fluorocyclohexyl)(2-cyclopropylethyl)amino)-1-oxoisoindolin-2-yl)piperidine-2,6-dione; formic acid], the IC50 with MV-4-11 cells (setting [1]) was less than 100 nM. Besides, the Dmax at 0.316 µM on CK1α is more than 75%.
The corresponding values for `NCC(F)(F)CCN(CCC1CC1)c1cccc2c1CN(C1CCC(=O)NC1=O)C2=O` (stereo not shown) [Compound 518, 3-(4-((4-amino-3,3-difluorobutyl)(2-cyclopropylethyl)amino)-1-oxoisoindolin-2-yl)piperidine-2,6-dione] are 100 to 1000 nM and more than 75%.
Take `CC(CC(F)(F)F)N[C@H]1CC[C@H](N(CCC2CC2)c2cccc3c2CN(C2CCC(=O)NC2=O)C3=O)CC1` (stereo partly shown) [Compound 547, 3-{4-[(2-cyclopropylethyl)[(1r,4r)-4-[(4,4,4-trifluorobutan-2-yl)amino]cyclohexyl]amino]-1-oxo-3H-isoindol-2-yl}piperidine-2,6-dione]: the IC50 in the assay with MV-4-11 cells (setting [1]) was less than 100 nM. In addition, the Dmax at 0.316 µM at CK1α was more than 75%.
In the same order, the values of `O=C1CCC(N2Cc3c(cccc3N(CCC3CC3)[C@H]3CC[C@H](NCCC(F)(F)F)CC3)C2=O)C(=O)N1` (stereo partly shown) [Compound 516, 3-{4-[(2-cyclopropylethyl)[(1r,4r)-4-[(3,3,3-trifluoropropyl)amino]cyclohexyl]amino]-1-oxo-3H-isoindol-2-yl}piperidine-2,6-dione] are less than 100 nM and more than 75%.
The corresponding values for `N[C@H]1CC[C@H](N(CCC2CCOCC2)c2cccc3c2CN(C2CCC(=O)NC2=O)C3=O)CC1` (stereo partly shown) [Compound 240, 3-(4-(((1r,4r)-4-aminocyclohexyl)(2-(tetrahydro-2H-pyran-4-yl)ethyl)amino)-1-oxoisoindolin-2-yl)piperidine-2,6-dione hydrochloride] are 100 to 1000 nM and less than 50%.
The corresponding values for `N[C@H]1CC[C@H](N(CCCC2CCOCC2)c2cccc3c2CN(C2CCC(=O)NC2=O)C3=O)CC1` (stereo partly shown) [Compound 242, 3-(4-(((1r,4r)-4-aminocyclohexyl)(3-(tetrahydro-2H-pyran-4-yl)propyl)amino)-1-oxoisoindolin-2-yl)piperidine-2,6-dione hydrochloride] are less than 100 nM and more than 75%.
As for `CC(C)CCN(c1cccc2c1CN(C1CCC(=O)NC1=O)C2=O)[C@H]1CC[C@H](N)CC1` (stereo partly shown) [Compound 238, 3-(4-(((1r,4r)-4-aminocyclohexyl)(isopentyl)amino)-1-oxoisoindolin-2-yl)piperidine-2,6-dione hydrochloride], the IC50 in the assay with MV-4-11 cells (setting [1]) is less than 100 nM. Further, the Dmax at 0.316 µM at CK1α was more than 75%.
For the molecule `C[C@H]1CC[C@@H](N(c2cccc3c2CN(C2CCC(=O)NC2=O)C3=O)[C@H]2CC[C@@H](CN)CC2)CC1` (stereo partly drawn) [Compound 334, 3-(4-(((1s,4S)-4-(aminomethyl)cyclohexyl)((1s,4S)-4-methylcyclohexyl)amino)-1-oxoisoindolin-2-yl)piperidine-2,6-dione], the IC50 in the assay with MV-4-11 cells (setting [2]) was more than 1000 nM.
With `O=C1CCC(N2Cc3c(ccc(F)c3N(CCC3CC3)[C@H]3CC[C@H](NCC4(C(F)(F)F)CC4)CC3)C2=O)C(=O)N1` (stereo partly shown) [Compound 619, 3-(4-((2-cyclopropylethyl)(4-(((1-(trifluoromethyl)cyclopropyl)methyl)amino)cyclohexyl)amino)-5-fluoro-1-oxoisoindolin-2-yl)piperidine-2,6-dione], the IC50 in the assay on MV-4-11 cells (setting [3]) is 100 to 1000 nM.
Turning to `N#CC1(CN[C@H]2CC[C@H](N(CCC3CC3)c3cccc4c3CN(C3CCC(=O)NC3=O)C4=O)CC2)CC1` (stereo partly shown) [Compound 611, 1-({[(1r,4r)-4-[(2-cyclopropylethyl)[2-(2,6-dioxopiperidin-3-yl)-1-oxo-3H-isoindol-4-yl]amino]cyclohexyl]amino}methyl)cyclopropane-1-carbonitrile], the IC50 in the assay with MV-4-11 cells (setting [3]) is less than 100 nM.
Consider `O=C1CCC(N2Cc3c(cccc3N(CCC3CC3)[C@H]3CC[C@H](NCCCC(F)(F)F)CC3)C2=O)C(=O)N1` (stereo partly shown) [Compound 642], for which, in the assay on MV-4-11 cells (setting [4]), the IC50 was less than 100 nM.
In the case of `N[C@H]1CC[C@H](N(CCc2ccccc2)c2cccc3c2CN(C2CCC(=O)NC2=O)C3=O)CC1` (stereo partly shown) [Compound 247, 3-(4-(((1r,4r)-4-aminocyclohexyl)(phenethyl)amino)-1-oxoisoindolin-2-yl)piperidine-2,6-dione, HCl], in the assay on MV-4-11 cells (setting [2]), the IC50 was 100 to 1000 nM.
As for `O=C1CCC(N2Cc3c(cccc3N(CCC3CC3)[C@H]3CC[C@H](Nc4ccccn4)CC3)C2=O)C(=O)N1` (stereo partly shown) [Compound 576, 3-{4-[(2-cyclopropylethyl)[(1r,4r)-4-(pyridin-2-ylamino)cyclohexyl]amino]-1-oxo-3H-isoindol-2-yl}piperidine-2,6-dione], in the assay with MV-4-11 cells (MV4-11, 44 h), the IC50 lay in the range of 100 to 1000 nM.
On to `NC(=O)[C@H]1CC[C@@H](N(CCC2CC2)c2cccc3c2CN(C2CCC(=O)NC2=O)C3=O)C1` (stereo partly drawn) [Compound 359, (1S,3R)-3-((2-cyclopropylethyl)(2-(2,6-dioxopiperidin-3-yl)-1-oxoisoindolin-4-yl)amino)cyclopentane-1-carboxamide], for which the IC50 with MV-4-11 cells (setting [2]) was less than 100 nM.
Turning to `CCCCCN(CCCCNC(=O)CC(C)(C)C)c1cccc2c1CN(C1CCC(=O)NC1=O)C2=O` (stereo not shown) [Compound 150, N-(4-((2-(2,6-dioxopiperidin-3-yl)-1-oxoisoindolin-4-yl)(pentyl)amino)butyl)-3,3-dimethylbutanamide], the IC50 in the assay on MV-4-11 cells (setting [5]) is more than 1000 nM.
On the same count and under the same terms, the value for `CC(C)(CCN)CCN(CCCCN)c1cccc2c1CN(C1CCC(=O)NC1=O)C2=O` (stereo not shown) [Compound 125, 3-(4-((5-amino-3,3-dimethylpentyl)(4-aminobutyl)amino)-1-oxoisoindolin-2-yl)piperidine-2,6-dione dihydrochloride] was 100 to 1000 nM.
As to `O=C1CCC(N2Cc3c(cccc3N(CC3CC3)[C@H]3CC[C@H](NCC4(C(F)(F)F)CC4)CC3)C2=O)C(=O)N1` (stereo partly shown) [Compound 653, 3-(4-((cyclopropylmethyl)((1r,4r)-4-(((1-(trifluoromethyl)cyclopropyl)methyl)amino)cyclohexyl)amino)-1-oxoisoindolin-2-yl)piperidine-2,6-dione formate], the IC50 in the assay on MV-4-11 cells (setting [4]) is 100 to 1000 nM.
Regarding `O=C1CCC(N2Cc3c(cccc3N(CCC3CC3)[C@H]3CC[C@@H](NCC4(F)CC4)CC3)C2=O)C(=O)N1` (stereo partly shown) [Compound 612A, 3-{4-[(2-cyclopropylethyl)[(1s,4s)-4-{[(1-fluorocyclopropyl)methyl]amino}cyclohexyl]amino]-1-oxo-3H-isoindol-2-yl}piperidine-2,6-dione], in the assay on MV-4-11 cells (setting [3]), the IC50 lay within 100 to 1000 nM.
In the case of `CC(C)(C)CCN(c1cccc2c1CN(C1CCC(=O)NC1=O)C2=O)[C@H]1CC[C@@H](CN)CC1` (stereo partly shown) [Compound 332, 3-(4-(((1s,4s)-4-(aminomethyl)cyclohexyl)(3,3-dimethylbutyl)amino)-1-oxoisoindolin-2-yl)piperidine-2,6-dione], in the assay with MV-4-11 cells (setting [2]), the IC50 was less than 100 nM.
As for `O=C1CCC(N2Cc3c(cccc3N(CC3CCC3)[C@H]3CC[C@H](NCCC(F)(F)F)CC3)C2=O)C(=O)N1` (stereo partly shown) [Compound 649, 3-{4-[(cyclobutylmethyl)[(1r,4r)-4-[(3,3,3-trifluoropropyl)amino]cyclohexyl]amino]-1-oxo-3H-isoindol-2-yl}piperidine-2,6-dione trifluoroacetic acid], the IC50 in the assay with MV-4-11 cells (setting [4]) lay in the range of 100 to 1000 nM.
Turning to `N[C@H]1CC[C@H](N(CCCC2CCCCO2)c2cccc3c2CN(C2CCC(=O)NC2=O)C3=O)CC1` (stereo partly shown) [Compound 341, 3-(4-(((1r,4r)-4-aminocyclohexyl)(3-(tetrahydro-2H-pyran-2-yl)propyl)amino)-1-oxoisoindolin-2-yl)piperidine-2,6-dione, HCl], the IC50 in the assay on MV-4-11 cells (setting [2]) lay in the range of 100 to 1000 nM.
